Data as given in article PMC3425544, “The S100A10 Subunit of the Annexin A2 Heterotetramer Facilitates L2-Mediated Human Papillomavirus Infection” (PLoS ONE, 2012).

Legend:
[1] = system: A2t (annexin A2 heterotetramer); test: EPR binding of L2 peptide to A2t; parameters: species or system human; details: mean of three separate experiments
Text: Next, we wanted to determine if there was a specific interaction between the L2_108–126 peptide and A2t using electron paramagnetic resonance (EPR) spectroscopy. EPR is a method of magnetic resonance spectroscopy measuring unpaired electrons whose underlying basic concepts are not unlike the more widely used technique of nuclear magnetic resonance (NMR) (reviewed in [43]). When coupled with site-directed paramagnetic-labeling, such as the attachment of a moiety with an unpaired electron to a cysteine residue, EPR can be used to obtain structural information within a small vicinity of the paramagnetic-label’s positions along the protein sequence. As a paramagnetic-label becomes locally constrained, such as when bound to another protein, its spectra will drastically change as visualized by a decrease in line amplitude and increased line-broadening. Therefore, EPR provides an in vitro biochemical method that measures protein-protein interactions by monitoring changes in the spectra recorded for a labeled protein in different experimental settings.
For our purposes, an N-terminal cysteine (with a 3 native aa spacer) contained in the L2_108–126 peptide (C-IVS-[…]) was paramagnetic-labeled (an unpaired-electron-containing small molecule was cross-linked via a disulfide bond to the peptide), and its spectra were analyzed after incubation with and without purified human recombinant A2t or controls. […]
Recombinant annexin A2 was expressed in BL21(DE3) Escherichia coli cells and purified using reversible Ca^2+-dependent binding to negatively charged phospholipid vesicles followed by size exclusion chromatography. […] Concentrations of all proteins and peptides, including the A2t complex, were determined using bicinchoninic acid assays (Pierce Thermo Scientific, Rockford, IL) compared to measured absorbance of albumin standards at 562 nm. […]

S100A10 subunit of A2t = test: EPR binding of L2 peptide to S100A10
Protocol: Recombinant annexin A2 was expressed in BL21(DE3) Escherichia coli cells and purified using reversible Ca^2+-dependent binding to negatively charged phospholipid vesicles followed by size exclusion chromatography. A pET23A vector containing the S100A10 sequence (a gift from Volker Gerke) was expressed in BL21(DE3) cells as previously described. Both proteins were stored at 4°C in 20 mM HEPES buffer at pH 7.4, containing 100 mM NaCl with the addition of 1 mM dithiothreitol. Concentrations of all proteins and peptides, including the A2t complex, were determined using bicinchoninic acid assays (Pierce Thermo Scientific, Rockford, IL) compared to measured absorbance of albumin standards at 562 nm. Purified annexin A2 and S100A10 were combined at a molar ratio of 1∶1 and concentrated to over 8 µg/µl. The mixture was incubated overnight at 4°C, and then loaded onto a superdex 200 10/300 GL (GE Healthcare USA) column equilibrated in the previously mentioned HEPES buffer. The eluted A2t peak was collected and subjected to peptide binding assays.
The L2_108–126 peptides used in our EPR studies were synthesized with a cysteine at the N-terminus, and followed by a spacer of 3 physiological amino acids (C-IVS) preceding the canonical L2_108–126 and L2 scrambled sequences (C-IVS-[…] and C-IVS-[…] respectively). Peptides were combined with 8× molar excess paramagnetic label (1-oxyl-2, 2, 5, 5-tetramethyl-Δ3-pyrroline-3-methyl) (R1) methanethiosulfonate (MTSL), (Toronto Research Chemicals, Canada) and left to react overnight at 4°C. Free label was removed by gel filtration (PD10 GE, United Kingdom). All peptides were solubilized into HEPES buffer. For competition assays, the scrambled peptide was non-paramagnetic labeled with an N-acetylated MTSL paramagnetic-label analog (1-acetyl-2,2,5,5- tetramethyl-Δ3-pyrroline-3-methyl) (R1′) at an 8× molar excess to emulate the paramagnetic label on control peptides. Binding interactions were examined by combining paramagnetically-labeled L2 peptide with A2t, BSA, ANXA2, or S100A10 (20 µM, 100 µM, 100 µM, 100 µM, and 100 µM respectively) in 10 µL volumes of the HEPES buffer, confined by glass capillaries, and measured at room temperature over a period of 24 hours using a Bruker EMX X-band EPR spectrometer. For the cysteine blocked S100A10, S100A10 was treated with R1′ and excess label was removed via gel filtration (see above) before the addition of paramagnetic labeled peptides. The experiments were done in triplicate with measurements taken at 12 db, in 5 scan intervals. All spectra were normalized to the same number of scans. To quantify the amount of bound peptide spectra of all tested proteins in combination with the L2_108–126 or ScrL2 peptides were compared to the spectra of L2_108–126 or ScrL2 peptides alone in solution using a spectra analyzing software (EPR 130, University of California, Los Angeles). By subtracting the alone peptide spectra from that of the combined samples we derive the spectra of the bound spectra, and based on double integration, relate this spectra to a concentration of the peptide that bound to the target protein.

[2] = system: surface of HeLa, SiHa and CaSki cells; details: ref [28], cited from earlier work

With “C-IVS-LVEETSFIDAGAPTSVPSI [L2_108–126, HPV16 L2 aa 108–126 peptide with N-terminal cysteine and IVS spacer]” the “relative % bound to A2t” value ([1]; 20 µM paramagnetic-labeled (MTSL) L2 peptide, 100 µM A2t, HEPES pH 7.4, room temperature) was 78.0%, the “relative % bound to A2t in presence of ScrL2” value ([1]; non-paramagnetic-labeled ScrL2 to WT L2_108–126 5∶1 molar ratio) was 75.8% and the “interaction with S100A10 subunit” value (S100A10 subunit of A2t; EPR, discussion) was “very strong interaction”. For the same substance, the “relative % bound to S100A10” value (S100A10 subunit of A2t; EPR, 20 µM peptide, 100 µM S100A10, mean of three separate experiments) was 92.5%, the “relative % bound to cysteine-blocked S100A10” value (S100A10 subunit of A2t; EPR, S100A10 cysteine-blocked with R1′ (αCys-S100A10), paramagnetic-labeled peptide, mean of three separate experiments) was 73.1% and the “relative % bound to S100A10 in presence of ScrL2” value (S100A10 subunit of A2t; EPR, scrambled peptide 5∶1, mean of three separate experiments) was 91.0%. The “relative binding constant (K), S100A10” value (S100A10 subunit of A2t; from EPR percent bound, association constant) was 150000 M⁻¹, the “binding to cell lines” value ([2]; SiHa, CaSki, [29] (b5), [23], [28]) was “can bind to the surface of several human cell lines” and the “binding to HeLa cells with substitutions at aa 108–111” value ([2]; aa 108–111 substituted (LVEE to GGDD)) was “decrease the binding”.
